Source: PubChem BioAssay (NCI)
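96-well plates; 48 h exposure; 5 concentrations. Endpoints by linear interpolation between flanking doses. Not reached: highest tested concentration assigned. Definition used: TGI = concentration required for complete inhibition of growth.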

Tested on: DU-145 prostate
Assay: NCI-60 cell line screen, 48 h

Row | Compound | TGI [µM]
1 | CO/N=C(/C(=O)OC)c1ccccc1COc1ccccc1C(F)(F)F | > 100
2 | COc1cc(Nc2ccc3c(c2)CCC3)nc(OC)n1 | > 100
3 | CCOC(=O)c1c2cccccc-2nc1Nc1cccc2c(C)ccnc12 | > 10
4 | Cc1c2c(c(C)n1-c1ccccc1)C(=O)N(CCN1CCN(c3cccc(C(F)(F)F)c3)CC1)C2=O | > 100
5 | CCOC(=O)CC/C(=N/Nc1ccc(Cl)cc1[N+](=O)[O-])C(=O)OCC | > 100
6 | COc1cc(O)c2c(=O)c(OC)c(-c3ccc(OC)c(O)c3)oc2c1 | > 100
7 | O=c1c2c(no[n+]2[O-])c2ccccc2n1-c1ccccc1 | > 74.2
8 | Clc1ccc(C=NC23CC4CC(CC(C4)C2)C3)c(Cl)c1 | > 10
9 | OCCCc1ccc2c(c1)[C@H](CO)[C@@H](c1ccc(O)cc1)O2 | > 100
10 | c1ccc(C2=NOC(c3ccccc3)N2C23CC4CC(CC(C4)C2)C3)cc1 (stereo not given) | > 10
11 | CCOC(=O)C(NC(=O)CC)(N1CCN(c2cc3c(cc2F)c(=O)c(C(=O)O)cn3C2CC2)CC1)C(F)(F)F (stereo not given) | > 100
12 | O=[N+]([O-])c1cc2oc(CSc3ccccc3)nc2cc1Cl | > 100
13 | CC(C)(CO)CNc1nc(N)nc(Cl)c1/C=N/O | > 100
14 | COc1ccc2oc(=N)c(C(=O)Nc3ccccc3)cc2c1 | > 100
15 | C=C(C)[C@H]1C2=CC(C(=O)OC)=C(C[C@H](C(=C)C)[C@@H](O)[C@@H](O)C3=C[C@H]1OC3=O)O2 | > 100
16 | O=c1onc2n1-c1cc(Cl)ccc1C(=S)N1CSCC21 (stereo not given) | > 100
17 | CN1CC[C@]2(c3cccc(O)c3)CC(=O)/C(=C/c3ccccc3)[C@@H]1C2 | 17.5

Row | Compound | TGI [µM]
18 | O=C(O)C(O)C(O)C(O)C(O)CO (stereo not given) | > 100
19 | OC(C#CCN1CCCC1)(c1ccccc1)c1ccccc1Cl (stereo not given) | > 100
20 | CSc1nc2c(c(N(C)C)n1)C(O)n1c(nc3ccccc31)S2 (stereo not given) | > 100
21 | O=C1CSC2(CC(/C=C/c3cccs3)=NN2c2cccc(S(=O)(=O)O)c2)N1c1nc2ccccc2s1 (stereo not given) | > 100
22 | COc1ccc(-c2nc3ccccc3c(=S)n2OC(C)=O)cc1 | > 25
23 | C[C@@H]1CCC2[C@@H](C)[C@@H](O[C@H]3O[C@@H]4O[C@@]5(C)CCC6[C@H](C)CCC([C@H]3C)[C@]64OO5)O[C@@H]3O[C@@]4(C)CCC1[C@@]23OO4 (stereo not given in full) | > 25
24 | O=C(c1ccccc1)c1ccc2c(c1)NC(=O)c1ccccc1SSc1ccccc1C(=O)N2 | > 100
25 | CCCCOCCOC1=C(Cl)C(=O)c2c(O)ccc(O)c2C1=O | 3.08
26 | COc1ccc(C(=O)NCCN(C)C)c2nc3ccccc3cc12 | 3.85
27 | Cc1ccc(/C=C2/N=C(N/N=C\C(O)C(O)C(O)C(O)CO)NC2=O)cc1 (stereo not given) | > 100
28 | CCN(C(=O)N[C@@H](C)C(=O)N[C@@H](Cc1ccccc1)C(=O)OC)c1ccccc1 | > 100
29 | CN(C)Cc1cc(C(=O)/C=C/c2ccc([N+](=O)[O-])cc2)cc(CN(C)C)c1O | 23
30 | O=C(CCSC1=NCCCN1)c1ccc(F)cc1 | 36
31 | CCOc1c(OC)cc(-c2nc3n(n2)C(=O)C(CC)S3)cc1OC (stereo not given) | > 10
32 | CC1OC(O[C@H]2C3C=CO[C@@H](OC4OC(CO)C(O)C(O)C4O)C3[C@@]3(COC(=O)/C=C/c4ccccc4)O[C@@H]23)C(O)C(O)C1O (stereo not given in full) | > 100
33 | C/C1=C\[C@H](C)C[C@H](C)OC(=O)[C@H](C)NC(=O)[C@@H](Cc2ccc(O)c(Br)c2)N(C)C(=O)[C@H](C)NC(=O)[C@@H](C)C1 | > 25
34 | COC1OC2COC(c3ccccc3)OC2C(O)C1OC(=S)c1ccccc1 (stereo not given) | > 100

Tested on: HS 578T breast
Assay: NCI-60 cell line screen, 48 h

Row | Compound | TGI [µM]
35 | CO/N=C(/C(=O)OC)c1ccccc1COc1ccccc1C(F)(F)F | > 100
36 | COc1cc(Nc2ccc3c(c2)CCC3)nc(OC)n1 | 42.6
37 | CCOC(=O)c1c2cccccc-2nc1Nc1cccc2c(C)ccnc12 | > 10
38 | Cc1c2c(c(C)n1-c1ccccc1)C(=O)N(CCN1CCN(c3cccc(C(F)(F)F)c3)CC1)C2=O | > 100
39 | CCOC(=O)CC/C(=N/Nc1ccc(Cl)cc1[N+](=O)[O-])C(=O)OCC | > 100
40 | COc1cc(O)c2c(=O)c(OC)c(-c3ccc(OC)c(O)c3)oc2c1 | > 100
41 | O=c1c2c(no[n+]2[O-])c2ccccc2n1-c1ccccc1 | 39.1
42 | Clc1ccc(C=NC23CC4CC(CC(C4)C2)C3)c(Cl)c1 | > 10
43 | OCCCc1ccc2c(c1)[C@H](CO)[C@@H](c1ccc(O)cc1)O2 | 38.6
44 | c1ccc(C2=NOC(c3ccccc3)N2C23CC4CC(CC(C4)C2)C3)cc1 (stereo not given) | > 10
45 | CCOC(=O)C(NC(=O)CC)(N1CCN(c2cc3c(cc2F)c(=O)c(C(=O)O)cn3C2CC2)CC1)C(F)(F)F (stereo not given) | > 100
46 | O=[N+]([O-])c1cc2oc(CSc3ccccc3)nc2cc1Cl | > 100
47 | CC(C)(CO)CNc1nc(N)nc(Cl)c1/C=N/O | > 100
48 | COc1ccc2oc(=N)c(C(=O)Nc3ccccc3)cc2c1 | 39.6
49 | C=C(C)[C@H]1C2=CC(C(=O)OC)=C(C[C@H](C(=C)C)[C@@H](O)[C@@H](O)C3=C[C@H]1OC3=O)O2 | > 100
50 | O=c1onc2n1-c1cc(Cl)ccc1C(=S)N1CSCC21 (stereo not given) | > 100
51 | CN1CC[C@]2(c3cccc(O)c3)CC(=O)/C(=C/c3ccccc3)[C@@H]1C2 | 13

Row | Compound | TGI [µM]
52 | O=C(O)C(O)C(O)C(O)C(O)CO (stereo not given) | > 100
53 | OC(C#CCN1CCCC1)(c1ccccc1)c1ccccc1Cl (stereo not given) | 73.6
54 | CSc1nc2c(c(N(C)C)n1)C(O)n1c(nc3ccccc31)S2 (stereo not given) | > 70.8
55 | O=C1CSC2(CC(/C=C/c3cccs3)=NN2c2cccc(S(=O)(=O)O)c2)N1c1nc2ccccc2s1 (stereo not given) | > 100
56 | COc1ccc(-c2nc3ccccc3c(=S)n2OC(C)=O)cc1 | > 25
57 | C[C@@H]1CCC2[C@@H](C)[C@@H](O[C@H]3O[C@@H]4O[C@@]5(C)CCC6[C@H](C)CCC([C@H]3C)[C@]64OO5)O[C@@H]3O[C@@]4(C)CCC1[C@@]23OO4 (stereo not given in full) | > 25
58 | O=C(c1ccccc1)c1ccc2c(c1)NC(=O)c1ccccc1SSc1ccccc1C(=O)N2 | > 100
59 | CCCCOCCOC1=C(Cl)C(=O)c2c(O)ccc(O)c2C1=O | 5.43
60 | COc1ccc(C(=O)NCCN(C)C)c2nc3ccccc3cc12 | 4.91
61 | Cc1ccc(/C=C2/N=C(N/N=C\C(O)C(O)C(O)C(O)CO)NC2=O)cc1 (stereo not given) | > 100
62 | CCN(C(=O)N[C@@H](C)C(=O)N[C@@H](Cc1ccccc1)C(=O)OC)c1ccccc1 | > 100
63 | CN(C)Cc1cc(C(=O)/C=C/c2ccc([N+](=O)[O-])cc2)cc(CN(C)C)c1O | 60.3
64 | O=C(CCSC1=NCCCN1)c1ccc(F)cc1 | 62.6
65 | CCOc1c(OC)cc(-c2nc3n(n2)C(=O)C(CC)S3)cc1OC (stereo not given) | > 10
66 | CC1OC(O[C@H]2C3C=CO[C@@H](OC4OC(CO)C(O)C(O)C4O)C3[C@@]3(COC(=O)/C=C/c4ccccc4)O[C@@H]23)C(O)C(O)C1O (stereo not given in full) | > 100
67 | C/C1=C\[C@H](C)C[C@H](C)OC(=O)[C@H](C)NC(=O)[C@@H](Cc2ccc(O)c(Br)c2)N(C)C(=O)[C@H](C)NC(=O)[C@@H](C)C1 | 3.76
68 | COC1OC2COC(c3ccccc3)OC2C(O)C1OC(=S)c1ccccc1 (stereo not given) | > 100

Tested on: RPMI-8226 leukemia
Assay: NCI-60 cell line screen, 48 h

Row | Compound | TGI [µM]
69 | CO/N=C(/C(=O)OC)c1ccccc1COc1ccccc1C(F)(F)F | 50.3
70 | COc1cc(Nc2ccc3c(c2)CCC3)nc(OC)n1 | 40.9
71 | CCOC(=O)c1c2cccccc-2nc1Nc1cccc2c(C)ccnc12 | > 10
72 | Cc1c2c(c(C)n1-c1ccccc1)C(=O)N(CCN1CCN(c3cccc(C(F)(F)F)c3)CC1)C2=O | > 100
73 | CCOC(=O)CC/C(=N/Nc1ccc(Cl)cc1[N+](=O)[O-])C(=O)OCC | > 100
74 | COc1cc(O)c2c(=O)c(OC)c(-c3ccc(OC)c(O)c3)oc2c1 | > 100
75 | O=c1c2c(no[n+]2[O-])c2ccccc2n1-c1ccccc1 | 42.8
76 | Clc1ccc(C=NC23CC4CC(CC(C4)C2)C3)c(Cl)c1 | > 10
77 | OCCCc1ccc2c(c1)[C@H](CO)[C@@H](c1ccc(O)cc1)O2 | > 100
78 | c1ccc(C2=NOC(c3ccccc3)N2C23CC4CC(CC(C4)C2)C3)cc1 (stereo not given) | > 10
79 | CCOC(=O)C(NC(=O)CC)(N1CCN(c2cc3c(cc2F)c(=O)c(C(=O)O)cn3C2CC2)CC1)C(F)(F)F (stereo not given) | > 100
80 | O=[N+]([O-])c1cc2oc(CSc3ccccc3)nc2cc1Cl | > 100
81 | CC(C)(CO)CNc1nc(N)nc(Cl)c1/C=N/O | > 100
82 | COc1ccc2oc(=N)c(C(=O)Nc3ccccc3)cc2c1 | 83
83 | C=C(C)[C@H]1C2=CC(C(=O)OC)=C(C[C@H](C(=C)C)[C@@H](O)[C@@H](O)C3=C[C@H]1OC3=O)O2 | > 100
84 | O=c1onc2n1-c1cc(Cl)ccc1C(=S)N1CSCC21 (stereo not given) | > 100
85 | CN1CC[C@]2(c3cccc(O)c3)CC(=O)/C(=C/c3ccccc3)[C@@H]1C2 | 4.84
